# Results reported in publication PMC5717258, “Bioaccumulation of pharmaceuticals and personal care product chemicals in fish exposed to wastewater effluent in an urban wetland” (Scientific Reports, 2017).
# Like-named read-outs stand apart in the source and are kept apart here.
# Key:
# [1] = cited from earlier work
# [2] = Description: Plasma from 9 individual male fish (500 µL/individual) was pooled to yield 3 samples for PPCP analysis. […] Plasma from 6 individual carp (2.3–3.5 g) from each location was selected for PPCP analysis. […] Plasma samples were frozen (−80 °C) until analysis.
# (§1) A total of 20 fish plasma samples from the pooled caged fish (7) and the wild fish (13) along with 12 water samples were selected for analysis. […] A full list of analytes is provided in Supplementary Information. Mass labelled^13C-, or deuterated surrogate internal standards were used for quantification of all analytes via the isotope dilution/surrogate standard quantitation method. Prior to extraction and/or clean-up procedures, aqueous samples were adjusted to pH 2.0, spiked with extraction surrogate standards, then adjusted to pH 4 using tetrasodium ethylenediamine-tetraacetate dihydrate. Plasma samples (2.3–2.5 g) were spiked with extraction surrogate standards, sonicated with 20 mL acetonitrile, then diluted with ultra-pure water to 200 mL. The extracts were cleaned up by solid phase extraction using Oasis HLB cartridges (Waters Ltd. Mississauga ON), filtered, and analyzed by liquid chromatography-electrospray ionization-tandem mass spectrometry (LC/ESI-MS/MS) in positive or negative ionization mode. The analysis of the complete list of analytes (SI Table S1) required a total of five instrumental runs.
# (§2) Quality assurance steps included analysis of lab blanks for water and plasma along with matrix recovery spikes. […] Detection limits (DLs) were defined as lowest calibration level adjusted to the maximal sample size or 3 times the signal of the noise in the target channel converted to an equivalent sample, whichever was greater. […] Where analytes were detected in two or more samples of the same species or series of water samples, non-detect values were converted to ½ the DL value for reporting purposes.
# in vivo = conditions: for concentration at 21 days: goldfish (Carassius auratus)
# From the text: Cages were visited weekly, and fish (13/cage) were fed during the visits (20 g/cage). All animal experiments were in accordance with CCAC guidance and approved by the GLLFAS-WSTD Animal Care Committee (Government of Canada). Further details on the caging and preparation of the fish and animal care protocols are provided in Simmons et al.[32]. […] A fourth site, Jordan Harbour (JH), a widening of 20 Mile Creek adjacent to Lake Ontario near Jordan ON, served as a reference site. Mass and fork length were measured and recorded. Plasma collection and storage is described in the SI. Plasma of caged goldfish was divided for proteome, metabolome and PPCP analysis. Due to limited volumes, pooled samples of plasma from 25 individual fish (50 µL/individual) was pooled to yield one sample from at each location for PPCP analysis.
# as §1, §2
# [3] = cited from earlier work; remark: listed apart in the source
# [4] = Plasma bioaccumulation factor (BAFP), goldfish; assay type: in vivo, goldfish (Carassius auratus); conditions: for BAFP, CPM2 goldfish caged: water sample of August 2012
# Description: Bioaccumulation factor (BAFP) was calculated as concentration in fish plasma (ng/g × 1000) divided by concentration in water (ng/L). Two widely used modeling approaches for predicting organic contaminant bioaccumulation were assessed: the BCF-BAF model for whole body BAFs[53] and the fish-plasma concentration calculation of Huggett et al.[35] modified by Berninger et al.[54]. The latter involves estimating an octanol-water partition coefficient (Kow) adjusted for fraction ionized (log D), using the pKa value to adjust log Kow[54] taking into account the pH of CPM waters. Further information on the calculation of log D, blood-water partitioning (PBW), and plasma concentrations (FPC) is given in the SI.
# [5] = parameters: method as in US EPA Chemistry Dashboard; conditions: ref US EPA Chemistry Dashboard; cited from earlier work
# [6] = wild goldfish sample 01, 2012, wet weight
# [7] = wild goldfish sample 02, 2012, wet weight
# [8] = wild goldfish sample 03, 2012, wet weight
# [9] = CPM1, 07-2014, pooled plasma, wet weight
# [10] = CPM2, 07-2014, pooled plasma, wet weight
# [11] = CPM3, 07-2014, pooled plasma, wet weight
# [12] = Jordan Harbour reference site, 07-2014, pooled plasma, wet weight
# [13] = Table S7, ref Meador et al. (2016)
# [14] = male, goldfish (Carassius auratus), in vivo
molecule,measurement,setting,value
CN(C)CCC=C1c2ccccc2CC(O)c2ccccc21 (stereo not shown) [10-hydroxy-amitriptyline],Sculpin (whole body) concentration,[1]; in vivo,0.13 ng/g
same,"plasma concentration, CPM-C 01","[2]; Cootes carp 01, 2011, male, wet weight",0.032 ng/g
same,"plasma concentration, CPM-C 2","[2]; Cootes carp 2, Sep 27, 2011, male, wet weight",0.053 ng/g
same,"plasma concentration, CPM-C 10","[2]; Cootes carp 10, Sep 28, 2011, female, wet weight",0.024 ng/g
same,"plasma concentration, CPM-C 13","[2]; Cootes carp 13, Sep 28, 2011, female, wet weight",0.047 ng/g
same,"plasma concentration, CPM-C 20","[2]; Cootes carp 20, 2011, male, wet weight",0.016 ng/g
same,"plasma concentration, CPM-C 36","[2]; Cootes carp 36, Oct 3, 2011, female, wet weight",0.025 ng/g
same,"Carp plasma concentration, this study (range)",[2]; Table S7,0.02 to 0.05 ng/g
same,"Goldfish plasma concentration, this study (range)",[2]; Table S7,0.01 to 0.06 ng/g
same,"plasma concentration, CPM wild-01",[2]; [6],0.015 ng/g
same,"plasma concentration, CPM wild-02",[2]; [7],0.036 ng/g
same,"plasma concentration, CPM wild-03",[2]; [8],0.058 ng/g
same,"plasma concentration, CPM1 caged",in vivo; [9],0.033 ng/g
same,"plasma concentration, CPM2 caged",in vivo; [10],0.039 ng/g
same,"plasma concentration, CPM3 caged",in vivo; [11],0.015 ng/g
same,"plasma concentration, JH caged",in vivo; [12],< 0.03 ng/g
same,Salmon (whole body) concentration,[3]; in vivo,0.09 ng/g
"Cc1nnc2n1-c1ccc(Cl)cc1C(c1ccccc1)=NC2 [Alpr azolam, Alprazolam]",Sculpin (whole body) concentration,[1]; [13],0.38 ng/g
CN(C)CCC=C1c2ccccc2CCc2ccccc21 [Amitriptyline],"Goldfish plasma concentration, this study (range)",[2]; Table S7,0.03 to 0.09 ng/g
same,"plasma concentration, CPM wild-01",[2]; [6],0.029 ng/g
same,"plasma concentration, CPM wild-02",[2]; [7],0.082 ng/g
same,"plasma concentration, CPM wild-03",[2]; [8],0.091 ng/g
same,concentration at 21 days,"in vivo; in vivo, plasma concentration, CPM1 caged, CPM1, 07-2014, pooled plasma, wet weight",0.029 ng/g
same,concentration at 21 days,"in vivo; in vivo, plasma concentration, CPM2 caged, CPM2, 07-2014, pooled plasma, wet weight",0.029 ng/g
same,concentration at 21 days,"in vivo; in vivo, plasma concentration, CPM3 caged, CPM3, 07-2014, pooled plasma, wet weight",0.031 ng/g
same,concentration at 21 days,"in vivo; in vivo, plasma concentration, JH caged, Jordan Harbour reference site, 07-2014, pooled plasma, wet weight",< 0.06 ng/g
same,Salmon (whole body) concentration,[3]; [13],0.58 to 0.68 ng/g
"CC[C@H]1OC(=O)[C@H](C)[C@@H](O[C@H]2C[C@@](C)(OC)[C@@H](O)[C@H](C)O2)[C@H](C)[C@@H](O[C@@H]2O[C@H](C)C[C@H](N(C)C)[C@H]2O)[C@](C)(O)C[C@@H](C)CN(C)[C@H](C)[C@@H](O)[C@]1(C)O [Azithrom yc in, Azithromycin]",Salmon (whole body) concentration,[3]; [13],1.7 ng/g
CC(C)(c1ccc(O)cc1)c1ccc(O)cc1 [Bisphenol A],Sculpin (whole body) concentration,[1]; [13],3.6 to 4.5 ng/g
same,Salmon (whole body) concentration,[3]; [13],3.3 to 41 ng/g
"O=C(O)c1cn(C2CC2)c2cc(N3CCNCC3)c(F)cc2c1=O [Ciproﬂoxacin, Ciprofloxacin]",Sculpin (whole body) concentration,[1]; [13],17 ng/g
"CNCCN1C(=O)[C@H](OC(C)=O)[C@H](c2ccc(OC)cc2)Sc2ccccc21 [Desm eth yld ilt ia zem, Desmethyldiltiazem]",Sculpin (whole body) concentration,[1]; [13],0.07 to 0.08 ng/g
same,Salmon (whole body) concentration,[3]; [13],0.06 to 1.5 ng/g
CN1C(=O)CN=C(c2ccccc2)c2cc(Cl)ccc21 [Diazepam],Sculpin (whole body) concentration,[1]; [13],0.25 ng/g
same,Salmon (whole body) concentration,[3]; [13],0.39 ng/g
CN(C)CCOC(c1ccccc1)c1ccccc1 [Diphenhydramine],"BAFP, CPM1 goldfish caged",[4],7 L/kg
same,"BAFP, CPM2 goldfish caged",[4],5 L/kg
CNCCC(Oc1ccc(C(F)(F)F)cc1)c1ccccc1 (stereo not shown) [Fluoxetine],Salmon (whole body) concentration,[3]; [13],4.9 ng/g
C[C@H](O)C(=O)Nc1c(I)c(C(=O)NC(CO)CO)c(I)c(C(=O)NC(CO)CO)c1I [Iopamidol],log Kow,[5],-2.21
same,"BAFP, CPM1 goldfish caged",[4],75 L/kg
same,"BAFP, CPM2 goldfish caged",[4],50 L/kg
same,"BAFP, CPM3 goldfish caged",[4]; CPM3,13 L/kg
same,"BAFP at CPM3, wild goldfish, average",[4]; conc in fish plasma/conc in water,38 L/kg
same,"BAFP at CPM3, wild goldfish, range",[4]; range based on range of plasma concentrations,37 to 40 L/kg
same,"plasma concentration, carp, this study (mean)",[2]; in vivo,< mdl
same,"plasma concentration, CPM wild-01",[2]; [14],7.85 ng/g
same,"plasma concentration, CPM wild-02",[2]; [14],8.15 ng/g
same,"plasma concentration, CPM wild-03",[2]; [14],8.35 ng/g
same,"plasma concentration, goldfish, this study (mean)",[2]; [14],8.12 ng/g wet weight or ng/mL for plasma
same,"wild goldfish plasma, range of concentrations",[2]; [14],8.2 to 20.9 ng/g
same,concentration at 21 days,"in vivo; in vivo, caged goldfish plasma, range of concentrations",7.85 to 8.35 ng/g
same,concentration at 21 days,"in vivo; in vivo, plasma concentration, CPM1 caged",20.9 ng/g
same,concentration at 21 days,"in vivo; in vivo, plasma concentration, CPM2 caged",17.6 ng/g
same,concentration at 21 days,"in vivo; in vivo, plasma concentration, CPM3 caged",8.2 ng/g
same,concentration at 21 days,"in vivo; in vivo, plasma concentration, JH caged",< 16 ng/g
Clc1ccc(COC(Cn2ccnc2)c2ccc(Cl)cc2Cl)c(Cl)c1 (stereo not shown) [Miconazole],Salmon (whole body) concentration,[3]; [13],1.8 ng/g
"COc1ccc(CCNCCCC(C#N)(c2ccc(OC)c(OC)c2)C(C)C)cc1OC (stereo not shown) [Norverapam il, Norverapamil]",Sculpin (whole body) concentration,[1]; [13],0.20 to 0.30 ng/g
same,Salmon (whole body) concentration,[3]; [13],0.12 to 0.47 ng/g
"COc1cc(C)c(Cc2cnc(N)nc2N)cc1OC [Orm etoprim, Ormetoprim]",Salmon (whole body) concentration,[3]; [13],44 to 1600 ng/g
Nc1ccc(S(=O)(=O)Nc2ncccn2)cc1 [Sulfadiazine],Salmon (whole body) concentration,[3]; [13],0.88 ng/g
"COc1cc(NS(=O)(=O)c2ccc(N)cc2)nc(OC)n1 [Sulfadim ethoxine, Sulfadimethoxine]",Salmon (whole body) concentration,[3]; [13],0.34 to 17 ng/g
"Cc1ccnc(NS(=O)(=O)c2ccc(N)cc2)n1 [Sulfam erazine, Sulfamerazine]",Salmon (whole body) concentration,[3]; [13],0.51 ng/g
"Oc1cc(Cl)ccc1Oc1ccc(Cl)cc1Cl [T riclosan, Triclosan]",Salmon (whole body) concentration,[3]; [13],26 ng/g
"CC1=C\[C@@H](O)CC(=O)Cc2nc(co2)C(=O)N2CCC=C2C(=O)O[C@H](C(C)C)[C@H](C)/C=C/C(=O)NC\C=C\1 [Virg in iam ycin M1, Virginiamycin M1]",Sculpin (whole body) concentration,[1]; [13],8 to 34 ng/g
same,Salmon (whole body) concentration,[3]; [13],10 ng/g
NC(=O)N1c2ccccc2C=Cc2ccccc21 [carbamazepine],detection in fish plasma,in vivo; in vivo,not detected
Anhydrochlortetracycline,"plasma concentration, CPM wild-01",[2]; [6],< 2.94 ng/g
same,"plasma concentration, CPM wild-02",[2]; [7],< 3.18 ng/g
same,"plasma concentration, CPM wild-03",[2]; [8],< 3.13 ng/g
same,"plasma concentration, CPM1 caged",in vivo; [9],2.97 ng/g
same,"plasma concentration, CPM2 caged",in vivo; [10],< 2.92 ng/g
same,"plasma concentration, CPM3 caged",in vivo; [11],< 3.07 ng/g
same,"plasma concentration, JH caged",in vivo; [12],< 3.0 ng/g
